Tests used:
D(1A) dopamine receptor = D(1A) dopamine receptor (Rattus norvegicus, UniProt P18901); test: Displacement of [3H]SCH23390 from dopamine D1 receptor in rat corpus striatum
D(2) dopamine receptor = D(2) dopamine receptor (Rattus norvegicus, UniProt P61169); test: Displacement of [3H]neomonapride from dopamine D2 receptor in rat corpus striatum
Rattus norvegicus = species: Rattus norvegicus; test: Selectivity ratio of […] in rat corpus striatum; type: tissue-based
[1] = target: T1, 5-hydroxytryptamine receptor 1A (Rattus norvegicus, UniProt P19327); test: Displacement of [3H]8-OH-DPAT from Serotonin 5-HT1A receptor in rat corpus striatum
T1 sequence (P19327 whole entry): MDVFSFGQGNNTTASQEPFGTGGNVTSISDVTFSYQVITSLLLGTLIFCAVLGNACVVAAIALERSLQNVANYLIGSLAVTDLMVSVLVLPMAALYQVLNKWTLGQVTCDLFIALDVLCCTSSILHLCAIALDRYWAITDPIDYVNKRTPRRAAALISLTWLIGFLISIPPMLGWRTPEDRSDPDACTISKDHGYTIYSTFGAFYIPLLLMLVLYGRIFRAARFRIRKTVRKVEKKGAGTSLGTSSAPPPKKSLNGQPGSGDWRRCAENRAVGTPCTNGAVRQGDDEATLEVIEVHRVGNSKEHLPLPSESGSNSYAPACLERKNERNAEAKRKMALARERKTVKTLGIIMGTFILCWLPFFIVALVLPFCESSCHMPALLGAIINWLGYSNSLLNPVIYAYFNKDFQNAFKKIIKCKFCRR

Sequence of D(2) dopamine receptor (P61169 whole entry): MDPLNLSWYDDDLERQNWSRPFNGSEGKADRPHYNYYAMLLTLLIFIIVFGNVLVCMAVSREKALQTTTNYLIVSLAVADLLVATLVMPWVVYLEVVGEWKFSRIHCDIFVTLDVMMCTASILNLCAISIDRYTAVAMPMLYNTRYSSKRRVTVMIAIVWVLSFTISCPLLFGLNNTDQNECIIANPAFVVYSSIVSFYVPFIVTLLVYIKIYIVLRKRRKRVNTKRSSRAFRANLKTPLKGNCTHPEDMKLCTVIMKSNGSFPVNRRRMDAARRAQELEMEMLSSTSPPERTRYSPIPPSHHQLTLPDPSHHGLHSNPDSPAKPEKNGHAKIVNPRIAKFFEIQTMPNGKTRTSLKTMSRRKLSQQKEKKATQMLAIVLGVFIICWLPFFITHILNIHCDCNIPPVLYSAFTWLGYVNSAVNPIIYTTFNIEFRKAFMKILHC
Sequence of D(1A) dopamine receptor (P18901 whole entry): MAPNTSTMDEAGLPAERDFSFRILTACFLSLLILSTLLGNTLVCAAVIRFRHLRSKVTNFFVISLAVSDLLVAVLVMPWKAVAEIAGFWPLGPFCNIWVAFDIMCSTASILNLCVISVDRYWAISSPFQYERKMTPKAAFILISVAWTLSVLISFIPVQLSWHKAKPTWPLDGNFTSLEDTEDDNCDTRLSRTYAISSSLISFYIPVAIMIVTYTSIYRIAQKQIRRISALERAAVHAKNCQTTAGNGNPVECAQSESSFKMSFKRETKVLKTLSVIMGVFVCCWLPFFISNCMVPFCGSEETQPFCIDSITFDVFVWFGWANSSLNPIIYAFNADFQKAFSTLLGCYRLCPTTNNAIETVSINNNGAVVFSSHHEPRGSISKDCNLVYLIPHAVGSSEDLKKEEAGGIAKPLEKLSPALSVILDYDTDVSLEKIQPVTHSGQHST

Structure (SMILES) | Ki (D(1A) dopamine receptor) [µM] | Ki (D(2) dopamine receptor) [µM] | Ratio (Rattus norvegicus) | Ki [1] [µM]
CCCN1CCc2cc(OCCO)cc3c2[C@H]1Cc1cccc(O)c1-3 | > 10 | 0.097 | > 103 | –
CCCN1CCc2cc(OC)cc3c2[C@H]1Cc1ccccc1-3 | > 10 | – | – | 1.6
CCCOc1cccc2c1-c1cc(O)cc3c1[C@@H](C2)N(C)CC3 | 1.81 | – | – | –
COc1cc2c3c(c1)-c1ccccc1C[C@H]3N(C)CC2 | 1.3 | 0.731 | 1.8 | 2.66
CCOc1cccc2c1-c1cc(O)cc3c1[C@@H](C2)N(C)CC3 | 3.68 | 0.641 | 5.7 | 0.432
CN1CCc2cc(O)cc3c2[C@H]1Cc1cccc(OCCO)c1-3 | > 10 | 3.34 | 3 | 0.289

Reference: ChEMBL document CHEMBL1155098, “Synthesis and binding studies of 2-O- and 11-O-substituted N-alkylnoraporphines” (Bioorg Med Chem Lett, 2008)
